Converted amounts (≈) assume the structure as drawn. Where two headings read alike, the source gives them in different places. Residues, ends and D or L forms follow the SMILES beside them.
Legend:
C. tropicalis ATCC 13803 = format: cell-based, Candida tropicalis; settings: ATCC 13803, 48 h
Experimental: (§1) Fungal strains used in this study include Candida albicans ATCC 10231, C. glabrata ATCC 2001 and C. tropicalis ATCC 13803. The fungi were grown in Remel Dex broth (Thermo Fisher Scientific, KS). Antifungal assays were conducted essentially as described for antibacterial assays above, except for a higher starting density at an OD600 0.02 and a longer incubation time of ˜48 hours prior to microplate reading (Mishra et al. (2015) RSC Advances 5:59758-59769).

C. glabrata ATCC 2001 = format: cell-based, Candida glabrata; settings: ATCC 2001, 48 h
Experimental: as §1

[1] = test system: Candida albicans ATCC 10231; format: cell-based; settings: ATCC 10231, 48 h
Experimental: as §1

E. coli K12 = format: cell-based, Escherichia coli; settings: K12
Summary of the method: (§2)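 Broth microdilution: exponential-phase bacteria at 10^6 CFU incubated with serially diluted peptides ~20 hours at 37° C, read at 630 nm to give MICs. For S. aureus USA300, effects of up to 10% human serum, pH 6.8/7.4/8.0 and 150 mM NaCl also tested.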

S. epidermidis 1457 = format: cell-based, Staphylococcus epidermidis
Summary of the method: as §2

MTS cytotoxicity assay [2] = format: cell-based; settings: human
Experimental: (§3) HeLa CCL-2 epithelial adenocarcinoma cells from American Type Culture Collection (ATCC) were maintained in DMEM high glucose media with 4 mM L-glutamine (NyClone) and 100 U/mL penicillin, 100 μg/mL streptomycin (pen/strep) (Life Technologies), and 10% (v/v) inactivated fetal bovine serum (FBS) (NyClone). Cells were grown in 5% CO2 at 37° C. and were detached from the culturing dish at 80% confluency using 0.025% trypsin-EDTA (NyClone) treatment. Peptide influence on the cell viability was estimated by using the MTS assay according to the manufacturer's protocol (MTS, CellTiter96® AQ One Solution Cell Proliferation Assay, Promega) with minor modifications and as described elsewhere (Mishra et al. (2015) RSC Advances 5:59758-59769). In short, cells were cultured in flat bottomed 96 well microtiter plates (Corning Life Science) at a seeding density of 20,000 cells/well. At confluence ˜100% achieved after 20-24 hours of cultivation, the cells were washed twice with 100 μL Dulbecco's Phosphate Buffered Saline (Life Technologies). Further, 90 μL of DMEM media with 10% FBS, pen/step was added before exposure to 10 μL of the peptide solution in the concentration range 12.5-100 μM. Plates were incubated at 37° C. After 1 hour, 10 μL MTS, CellTiter96® was added. Plates were further incubated for another 2 hours at 37° C. and finally, the absorbance was measured on ChroMate® reader (Awareness Technology) at 492 nm. Culture medium and 0.2% SDS were used as negative and positive controls, respectively.
Human skin HaCaT (immortalized keratinocyte from AddexBio, T0020001) and kidney HEK293 cells were also cultivated for cytotoxicity evaluation of the peptides in a similar manner.

S. aureus USA300 [3] = format: cell-based, Staphylococcus aureus; settings: USA300
Experimental: The minimal bactericidal concentration (MBC) was determined by plating 50 μl of the content in the clear wells of the above MIC assays. MBC was determined on the petri dishes without bacterial colony formation after overnight growth (Wang et al. (2012) Biochemistry 51:653-664).

S. aureus USA300 [4] = format: cell-based, Staphylococcus aureus; settings: for Antimicrobial activity (MIC) 150 mM NaCl / Antimicrobial activity (MIC) USA300 / MIC S. aureus USA300: USA300; for Antimicrobial activity (MIC) pH 6.8: USA300, pH 6.8; for Antimicrobial activity (MIC) Normal medium (pH 7.4): USA300, pH 7.4; for Antimicrobial activity (MIC) pH 8: USA300, pH 8
Summary of the method: as §2

S. aureus Newman = format: cell-based, Staphylococcus aureus
Summary of the method: as §2

S. aureus Mu50 = format: cell-based, Staphylococcus aureus
Summary of the method: as §2

S. aureus UAMS-1 = format: cell-based, Staphylococcus aureus
Summary of the method: as §2

MTS cytotoxicity assay [5] = format: cell-based; settings: human, HeLa CCL-2 cells
Experimental: as §3

Hemolytic assay = format: cell-based; settings: red blood cells, hemolysis
Experimental: Hemolytic analysis of selected peptides was performed using an established protocol (Mishra et al. (2015) RSC Advances 5:59758-59769). Briefly, human blood cells (UNMC Blood Bank) were washed three times with phosphate buffer saline (PBS) and diluted to a 2% solution. After peptide treatment, incubation at 37° C. for one hour, and centrifugation at 13,000 rpm, aliquots of the supernatant were transferred to a fresh 96-well microplate. To assess peptide cytotoxicity, the amount of hemoglobin released was measured at 545 nm. The percent lysis was calculated by assuming 100% release when human blood cells were treated with 1% TRITON™ X-100, and 0% release when incubated with PBS buffer. The hemolytic assays using chicken, bovine, and porcine blood cells (Lampire Biological Laboratories, Inc.) were performed in the same manner.

B. subtilis 168 = format: cell-based, Bacillus subtilis
Summary of the method: as §2

[6] = chicken, read-out: LC50 Chicken RBCs
[7] = human, read-out: LC50 Human RBCs
[8] = pig, read-out: LC50 Porcine RBCs

| Compound | MIC Candida tropicalis (C. tropicalis ATCC 13803) [µM] | MIC Candida glabrata (C. glabrata ATCC 2001) [µM] | MIC Candida albicans [1] [µM] | MIC E. coli K12 (E. coli K12) [µM] | MIC S. epidermidis 1457 (S. epidermidis 1457) [µM] | CC50 at 1 hour (MTS cytotoxicity assay [2]; HEK293 cells) [µM] | CC50 at 1 hour (MTS cytotoxicity assay [2]; HaCaT cells) [µM] | MBC S. aureus USA300 (S. aureus USA300 [3]) [µM] | change in MIC on drop of pH from 8 to 6.8 (S. aureus USA300 [4]; S. aureus USA300) | Antimicrobial activity (MIC) 150 mM NaCl (S. aureus USA300 [4]) [µM] | Antimicrobial activity (MIC) USA300 (S. aureus USA300 [4]) [µM] | MIC S. aureus USA300 (S. aureus USA300 [4]) [µM] | Antimicrobial activity (MIC) pH 6.8 (S. aureus USA300 [4]) [μM] | Antimicrobial activity (MIC) Normal medium (pH 7.4) (S. aureus USA300 [4]) | Antimicrobial activity (MIC) pH 8 (S. aureus USA300 [4]) [μM] | Antimicrobial activity (MIC) Newman (S. aureus Newman) [µM] | Antimicrobial activity (MIC) Mu50 (S. aureus Mu50) [µM] | Antimicrobial activity (MIC) UAMS-1 (S. aureus UAMS-1) [µM] | CC50 at 1 hour (MTS cytotoxicity assay [5]) [µM] | HC50 at 1 hour (Hemolytic assay; [6]) [µM] | further results |
| --- | --- | --- | --- | --- | --- | --- | --- | --- | --- | --- | --- | --- | --- | --- | --- | --- | --- | --- | --- | --- | --- |
| CC[C@H](C)[C@H](NC(=O)[C@H](CCCCN)NC(=O)[C@H](CCCNC(=N)N)NC(=O)[C@H](CC(C)C)NC(=O)[C@H](Cc1c[nH]c2ccccc12)NC(=O)[C@H](Cc1c[nH]c2ccccc12)NC(=O)[C@@H](N)Cc1c[nH]c2ccccc12)C(=O)N[C@@H](Cc1c[nH]c2ccccc12)C(N)=O [TetraF2W-RK, WWWLRKIW] (H-WWWLRKIW-NH2; N-terminus assumed) | 3.1 to 6.2 | 12.5 (≈ 15.9 µg/mL) | 12.5 (≈ 15.9 µg/mL) | 25 (≈ 31.8 µg/mL) | 6.2 (≈ 7.89 µg/mL) | 60 | 60 | 12.5 (≈ 15.9 µg/mL) | two-fold | 3.1 | 3.1 | 3.1 (≈ 3.94 µg/mL) | 6.2 | 3.1 μM | 3.1 | 3.1 | 3.1 | 6.2 | > 100 | 35 | HC50 at 1 hour (Hemolytic assay; [7]): 30 µM; HC50 at 1 hour (Hemolytic assay; [8]): 40 µM; MIC B. subtilis 168 (B. subtilis 168): 6.2 µM (≈ 7.89 µg/mL) |
| CC[C@H](C)[C@H](NC(=O)[C@H](CCCNC(=N)N)NC(=O)[C@H](CCCNC(=N)N)NC(=O)[C@H](CC(C)C)NC(=O)[C@H](Cc1c[nH]c2ccccc12)NC(=O)[C@H](Cc1c[nH]c2ccccc12)NC(=O)[C@@H](N)Cc1c[nH]c2ccccc12)C(=O)N[C@@H](Cc1c[nH]c2ccccc12)C(N)=O [TetraF2W-RR, WWWLRRIW] (H-WWWLRRIW-NH2; N-terminus assumed) | 3.1 (≈ 4.03 µg/mL) | >25 | 25 (≈ 32.5 µg/mL) | 25 (≈ 32.5 µg/mL) | 6.2 to 12.5 | 70 | 70 | 3.1 (≈ 4.03 µg/mL) | two-fold | 3.1 | 1.56 to 3.1 | 1.6 to 3.1 | 6.2 | 1.56-3.1 μM | 3.1 | 3.1 | 3.1 | 6.2 | 60 | 55 | fold more potent than temporin-SHf (anti-MRSA) (S. aureus USA300 [4]; S. aureus USA300): 8 fold; HC50 at 1 hour (Hemolytic assay; [7]): 20 µM; HC50 at 1 hour (Hemolytic assay; [8]): 40 µM; MIC B. subtilis 168 (B. subtilis 168): 3.1 to 6.2 µM |

Reference: US20190048052A1, “ANTI-MICROBIAL PEPTIDES AND COATINGS” (Board of Regents of the University of Nebraska, priority 2016, published 2019)
